# System: IL-17A protein
# Assay: skin Resident Immune Cell Assay (sRICA), Th17 model, human skin biopsies
# Assay type: cell-based
# Conditions: Example 2, FIG. 1; 10 ul topical, overnight; media harvested 48 hours after activation; N=6
# Procedure: A skin Resident Immune Cell Assay (sRICA) was used to test Compounds 1, 2 and 3 in Formulations as identified in Example 1 for reduction of IL-17A protein upregulation in the Th17 sRICA model. In this model, human surgical skin waste was cultured in a transwell system, with the dermis in contact with cell culture media and the stratum corneum exposed to air. To perform the assay, each human skin sample was defatted and dermatomed to 750 μm. Next, 8 mm punch biopsies were obtained and placed in a membrane transwell. The biopsies were prepared with a barrier ring to contain the formulation and prevent leakage of the formulation. […]
# 10 ul of the test solvent system was applied to topically prepared sRICA samples and allowed to penetrate the skin overnight. […] An unpaired, two-tailed students T-test was used to determined statistical significance between Th17 treated skin and treatment groups. The performance of the 3 RORγt inhibitors in Formulations representative of creams (Formulations 3-7), aqueous gels (Formulation 8), non-aqueous gels (Formulations 9-10), and ointments (Formulation 11) were evaluated.
# All formulations of containing Compound 1 or Compound 2 were created at 80% saturation, except for all non-aqueous gels (NAG) in which saturation has not yet been determined (>12%) and were arbitrarily formulated at 1% or 5% (see Formulation 10 (1%) and Formulation 10 (5%) in Tables 6 and 7). […]
structure (smiles),measurement,value
C[C@H]1C[C@H]2[C@@H]3CCC4=CC(=O)C=C[C@]4(C)[C@@]3(F)[C@@H](O)C[C@]2(C)[C@@]1(O)C(=O)CCl [Clobetasol],Th17-cocktail induced IL17A protein in culture media,complete suppression
